pIC50: −log10 of the molar value. Where two headings read alike, the source gives them in different places.
Columns and labels:
[1] = target: T1, P-glycoprotein (Homo sapiens, UniProt P08183); design: expressed in transfected cells; host or cells: MDCKII-MDR1 (MDCKII canine kidney cells); details: cited from earlier work
[2] = target: T1, P-glycoprotein; experiment: in vitro; details: MDCK-MDR1
Description: MDCKII-MDR1 cells were incubated in cell culture flasks. The incubator was set at 37° C., 5% CO2, and a guaranteed relative humidity of 95%. When the cells reached 70 to 90% confluence, the cells may be seeded to transwells.
50 μL of the cell suspensions were added to the apical chambers of each well of the 96-well transwells at a final seeding density of 5.45×10^5 cells/cm^2.
MDCKII-MDR1 cells may be fully confluent and differentiated after 4 to 8 days of incubation. At this time, the cells may be applied to penetration test. The monolayer membrane resistance was measured with a resistance meter (Millipore), and the resistance per well was recorded. After the test, the transwells were returned to the incubator.
The transwells with MDCKII-MDR1 cells were taken from the incubator. The cell monolayers were rinsed twice with buffer and incubated at 37° C. for 30 minutes.
The rate of the compounds from an apical end to a basolateral end was determined. 75 μL of the buffer containing the test sample was added to each well of the apical chambers (apical end), and 235 μL of the buffer was added to each well of the basolateral chambers (basolateral end).
The rate of the compounds transporting from the basolateral end to the apical end was determined. 75 μL of the buffer was added to the apical chambers (apical end), and 235 μL of the buffer containing the test sample was added to the basolateral chamber (basolateral end).
After the apical chambers and the basolateral chambers were combined respectively, the transwells were incubated at 37° C. for 2 hours.
After incubation, 50 μL of the sample from each well of the apical chambers and the basolateral chambers of the transwells was transferred to new sample tubes respectively. 200 μL of acetonitrile (100 nM of Alprazolam, 200 nM of Labetalol, 200 nM of caffeine, and 2 μM of Ketoprofen) as an internal standard was added to the sample tubes, vortexed for 10 minutes, and centrifuged at 3220 g for 30 minutes. 100 μL of the supernatant was taken and diluted with an equal volume of water for LC-MS/MS analysis. Each sample was incubated in triplicate.
Peak-areas were calculated from ion chromatography results. The apparent permeability coefficient (Papp, unit: cm/s×10-6) of the compounds was calculated by the following formula.
In the formula, VA was the volume of the solution at the acceptor end (Ap→B1 was 0.235 mL, and B1→Ap was 0.075 mL), Area was the membrane area (0.143 cm^2) of 96-well transwell, time was the incubation time (unit: s), [drug]acceptor referred to the drug concentration of the acceptor end after incubation, and [drug]initial,donor referred to the initial concentration of the donor end before incubation.
Efflux ratio was calculated with the following formula.
In the formula, Papp(B_A) was the apparent permeability coefficient from the basolateral end to the apical end, and Papp(A-B) was the apparent permeability coefficient from the apical end to the basolateral end.
The recovery rate was calculated with the following formula.
In the formula, VA was the solution volume of the acceptor end (unit: mL), VD was the solution volume of the donor end (unit: mL), [drug]acceptor referred to the drug concentration of the acceptor end after incubation, and [drug]initial,donor referred to the initial concentration of the donor end before incubation.

[3] = system: H460 non-small cell lung cancer; details: cited from earlier work
[4] = system: H460 cell line; details: test results in WO2016210175A1 and CN108024974A, cited from earlier work
[5] = Plasma stability, dog; type: in vitro ADME; details: Dog plasma, 5 μM, 37° C., after 30 minutes
Description: (§1) Frozen plasma was melted immediately in a water bath at 37° C. […] The supernatants were collected into new tubes, respectively. pH values of the plasma were checked and recorded. Note: a, no more 2 times melted plasma was used since the sample was received; b, the plasma in pH 7 to pH 8 was used.
(§2) 1 mM of working solution of the test compounds and the control compound, propantheline, were prepared in DMSO. 1 mM of working solution of the control compound in […] was prepared in acetonitrile. 4 μL of the working solutions were added to 796 μL of pre-incubated plasma respectively to achieve a final concentration of 5 μM. The final concentration of solvent was 0.5%.
(§3) […] The test was performed in duplicate. […] 50 μL of the labeled plasma was added to new tubes containing 300 μL of the quench solution of room temperature, i.e., the sample with a preparation time of 0. The samples were vortexed to mix for 5 minutes. […] 100 μL of the supernatant was transferred to new plates.

[6] = Plasma stability, rat; type: in vitro ADME; details: Rat plasma, 5 μM, 37° C., after 30 minutes
Description: as §1, §2, §3

[7] = Plasma stability, monkey; type: in vitro ADME; details: 5 μM, 37° C., after 30 minutes
Description: as §1, §2, §3

[8] = Plasma stability, mouse; type: in vitro ADME; details: Mouse plasma, 5 μM, 37° C., after 30 minutes
Description: as §1, §2, §3

[9] = Plasma stability, human; type: in vitro ADME; details: 5 μM, 37° C., after 30 minutes
Description: as §1, §2
Aliquots of 50 μL of labelled plasma were transferred to new tubes and incubated in a water bath at 37° C. at approximately 60 rpm for 2 hours. The test was performed in duplicate. […] 50 μL of the labeled plasma was added to new tubes containing 300 μL of the quench solution of room temperature, i.e., the sample with a preparation time of 0. The samples were vortexed to mix for 5 minutes. […] 100 μL of the supernatant was transferred to new plates.

[10] = system: H460 cell line; experiment: Cytotoxicity comparison of TH-302 and compound 01 on H460 at different test times; type: cell-based, human; details: Homo sapiens, NCI-H460, 2 h, H460, exposure for 2 hours, air
Text: The cytotoxicity test results of TH-302 and compound 01 on H460 cell line under different test times in the same laboratory, the same operator, and the same experimental conditions.

[11] = system: H460 cell line; experiment: Hypoxia-dependent cytotoxicity experiment (2 hours exposure, air or N2, CTG); type: cell-based; details: Homo sapiens, then 3 days
Description: To determine the effect of the compounds of the present disclosure on cancer cell proliferation, these compounds were tested for cancer cell anti-proliferative activity in a porous CTG-based assay. Cell growth was compared in the present (treatment groups) and the absence of the test compound. 10,000 cells/well/495 μL of medium was used to test the following cell line, a human tumor cell line of H460 non-small cell lung cancer. The cells were seeded on glass-inserts located in each well of 24-well plates with a density and medium as specified above. 24 hours later, the plates were divided into 2 groups, hypoxia (using N2) group and air group. TH-302 at the concentrations from 100, 10, 0.1 to 0.01 μM, and the test compounds at the concentrations from 10, 1, 0.1, 0.01, 0.001 to 0.0001 were added to each well (500 μL volume) of the treatment groups. The final DMSO concentration in each well was lower than or equal to 1%. The cells in the hypoxia group were incubated for 2 hours in an ELECTROTEK hypoxia workstation. The cells in the air group were incubated for 2 hours in a standard culture incubator. 2 hours later, the test compounds were removed from each well. The cells were washed with 500 μL of medium and incubated in 500 μL of fresh medium for 3 days. 3 days later, 200 μL of medium per well was discarded. 60 μL of CTG was added to the wells, and the plates were placed at room temperature for 15 minutes in the dark. 100 μL of medium from each well of the 24-well plates was transferred to 96-well plates. The chemiluminescence signal values were read with an M5 full-band multi-mode-function microplate reader, and integration=750 ms. The compounds of control 1 and control 2 were used as controls.

[12] = system: H460; experiment: Cytotoxicity on cell lines of different species: H460; type: cell-based; details: NCI-H460; H460, Human; exposure time: 72 h
[13] = system: AA8; experiment: Cytotoxicity on cell lines of different species: AA8; type: cell-based
[14] = test results in WO2016210175A1 and CN108024974A

T1 sequence (P08183 whole entry): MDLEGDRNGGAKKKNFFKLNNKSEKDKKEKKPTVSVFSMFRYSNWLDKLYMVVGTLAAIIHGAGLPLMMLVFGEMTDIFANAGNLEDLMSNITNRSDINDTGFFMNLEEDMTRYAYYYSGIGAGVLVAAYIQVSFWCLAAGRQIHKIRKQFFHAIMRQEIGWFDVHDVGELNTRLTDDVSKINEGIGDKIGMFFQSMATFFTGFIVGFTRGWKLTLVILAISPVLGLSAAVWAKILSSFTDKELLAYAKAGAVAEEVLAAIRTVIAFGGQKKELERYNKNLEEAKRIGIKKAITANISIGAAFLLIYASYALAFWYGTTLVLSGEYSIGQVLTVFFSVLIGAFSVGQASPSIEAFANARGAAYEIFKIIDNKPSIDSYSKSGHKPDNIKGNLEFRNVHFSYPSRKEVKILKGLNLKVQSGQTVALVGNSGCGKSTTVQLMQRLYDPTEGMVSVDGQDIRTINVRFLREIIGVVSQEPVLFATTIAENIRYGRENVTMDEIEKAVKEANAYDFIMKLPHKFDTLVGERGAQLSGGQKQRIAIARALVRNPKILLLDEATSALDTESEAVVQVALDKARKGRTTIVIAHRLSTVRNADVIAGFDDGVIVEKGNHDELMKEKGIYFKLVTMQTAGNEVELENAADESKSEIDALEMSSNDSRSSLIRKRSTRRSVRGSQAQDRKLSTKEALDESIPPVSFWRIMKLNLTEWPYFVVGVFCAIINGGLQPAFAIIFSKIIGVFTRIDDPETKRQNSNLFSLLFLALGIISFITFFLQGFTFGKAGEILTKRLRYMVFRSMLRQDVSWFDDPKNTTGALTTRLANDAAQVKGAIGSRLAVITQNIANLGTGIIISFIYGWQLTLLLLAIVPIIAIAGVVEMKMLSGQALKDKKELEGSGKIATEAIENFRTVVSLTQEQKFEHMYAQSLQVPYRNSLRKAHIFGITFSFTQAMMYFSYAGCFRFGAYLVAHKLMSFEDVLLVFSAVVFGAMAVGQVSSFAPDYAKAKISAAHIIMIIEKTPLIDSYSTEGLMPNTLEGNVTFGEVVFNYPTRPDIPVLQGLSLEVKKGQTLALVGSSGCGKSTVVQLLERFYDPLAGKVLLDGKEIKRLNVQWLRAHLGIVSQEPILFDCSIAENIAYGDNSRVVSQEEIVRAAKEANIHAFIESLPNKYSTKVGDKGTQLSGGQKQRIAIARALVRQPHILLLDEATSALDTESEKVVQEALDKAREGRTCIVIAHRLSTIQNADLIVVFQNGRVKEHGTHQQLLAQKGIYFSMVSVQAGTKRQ

For Cc1ccc(NC(=O)c2ccc(CN3CCN(C)CC3)cc2)cc1Nc1nccc(-c2cccnc2)n1 [Imatinib, reference compound], the “P-gp substrate (known / earlier data and literature)” value [1] is listed as “known P-gp substrates”, the “Papp (A-B)” value [2] is listed as 21.94 10^−6, cm/s and the “Papp (B-A)” value [2] is listed as 18.69 10^−6, cm/s. The Papp A→B at 2 h ([2]; dog) was 2.24 ×10⁻⁶ cm/s and the Papp B→A at 2 h ([2]; dog) was 24.1 ×10⁻⁶ cm/s.
For C[C@H](OP(=O)(N1CC1)N1CC1)c1ccc([N+](=O)[O-])cc1 [TH2566], the pIC50 [3, 14] is given as 7.00, the pIC50 ([4]; read-out: N2: IC50) is given as 4.64 and the pIC50 ([4]; read-out: Normoxia: IC50) is given as 7.00.
Molecule CC[C@H](C)C(=O)O[C@H]1C[C@@H](C)C=C2C=C[C@H](C)[C@H](CC[C@@H]3C[C@@H](O)CC(=O)O3)[C@H]21 [Lovastatin, reference compound] has a Remaining percentage [5] of 37.6% and a Remaining percentage [6] of 0.21%.
For CC(C)[N+](C)(CCOC(=O)C1c2ccccc2Oc2ccccc21)C(C)C [Propantheline, reference compound], the Remaining percentage [7] was 48.11%, the Remaining percentage [8] was 5.33% and the Remaining percentage [9] was 0.07%.
For C[C@@H](OP(=O)(N1CC1)N1CC1)c1ccc([N+](=O)[O-])cc1 [TH2565], the pIC50 [3, 14] is given as 7.00, the pIC50 ([4]; read-out: N2: IC50) is given as 4.74 and the pIC50 ([4]; read-out: Normoxia: IC50) is given as 7.00.
Molecule Cn1c(COP(=O)(NCCBr)NCCBr)cnc1[N+](=O)[O-] [Control 1, Evofosfamide, reference compound] has a pIC50 ([10]; Time 1) of 4.64, a pIC50 ([10]; Time 2) of 5.10 and a pIC50 ([10]; Time 3) of 5.48. For the same molecule, the pIC50 ([3]; value from published literature (Meng et al., Mol Cancer Ther 2012)) was 6.10, the “P-gp substrate (known / earlier data and literature)” value [1] was “P-gp substrate” and the pIC50 ([11]; NCI-H460, H460, air, read-out: Normoxia: IC50) was 5.10. The pIC50 ([11]; NCI-H460, H460, hypoxia (N2), read-out: N2: IC50) was 7.32, the pIC50 [12] was 4.70 and the pIC50 ([13]; CHO-AA8, AA8, Rat, exposure time: 72 h) was 3.08. For the same molecule, the “Multiple: Rat/Human” value ([13]; IC50 AA8 / IC50 H460) was 41.5.

Reference: patent publication US20230026163A1, “ANTICANCER COMPOUND AND MEDICAL USE THEREOF” (ASCENTAWITS PHARMACEUTICALS, LTD., priority 2019, published 2023)
